The species entered for assay [1] is Rattus norvegicus. Put plainly: Compound was tested for its ability to stimulate bone calcium resorption in rats at a dose of 12.5 ng/rat. The class given is functional, organism-based.
Assay [2] is filed under the species Rattus norvegicus. Put plainly: Compound was tested for increase in plasma calcium concentration in rats. The class given is functional, organism-based.
The species named for assay [3] is Rattus norvegicus. The assay can be described thus: Compound was tested for its ability to stimulate intestinal calcium absorption relative to 1,25(OH)2D3 in rats at a dose of 200ng/rat, expressed as Ca (serosal) /Ca (mucosal). The class given is functional.
The species named for assay [4] is Rattus norvegicus. The assay can be described thus: Compound was tested for its ability to stimulate bone calcium resorption in serum relative to 1,25(OH)2D3 in rats at a dose of 100 ng/rat. The class given is functional, organism-based.
For assay [5], the species on record is Rattus norvegicus. Put plainly: Compound was tested for its ability to stimulate bone calcium resorption in serum relative to 1,25(OH)2D3 in rats at a dose of 200 ng/rat. The class given is functional, organism-based.
Assay [6] is filed under the species Rattus norvegicus. The assay can be described thus: Compound was tested for its ability to stimulate intestinal calcium absorption relative to 1,25(OH)2D3 in rats at a dose of 25ng/rat, expressed as Ca (serosal) /Ca (mucosal). The class given is functional.
The species entered for assay [7] is Rattus norvegicus. Put plainly: Compound was tested for regulation of kidney VDR in rats. The class given is functional.
Assay [8] is filed under the species Rattus norvegicus. The assay can be described thus: Compound was tested for its ability to stimulate intestinal calcium absorption relative to 1,25(OH)2D3 in rats at a dose of 100ng/rat, expressed as Ca (serosal) /Ca (mucosal). The class given is functional.
Assay [9] is filed under the species Rattus norvegicus. The assay can be described thus: Compound was tested for its ability to stimulate bone calcium resorption in serum relative to 1,25(OH)2D3 in rats at a dose of 25 ng/rat. The class given is functional, organism-based.
For assay [10], the species on record is Rattus norvegicus. The assay can be described thus: Compound was tested for its ability to stimulate intestinal calcium absorption relative to 1,25(OH)2D3 in rats at a dose of 50ng/rat, expressed as Ca (serosal) /Ca (mucosal). The class given is functional.
The species entered for assay [11] is Rattus norvegicus. Put plainly: Compound was tested for its ability to stimulate bone calcium resorption in serum relative to 1,25(OH)2D3 in rats at a dose of 50 ng/rat. The class given is functional, organism-based.

Structures are written as SMILES.

`C=C1/C(=C\C=C2/CCC[C@]3(C)[C@@H]([C@H](C)CCCC(C)(C)O)CC[C@@H]23)C[C@@H](O)C[C@@H]1O`: the Serum Ca2+ in assay [1] worked out at 4.6 mg/dL. Also, in [2], the Plasma Ca2+ turned out to be 10.6 mg/dL.

`C=C1/C(=C\C=C2/CCC[C@]3(C)[C@@H]([C@H](C)/C=C/[C@H](CO)C(C)(C)O)CC[C@@H]23)C[C@@H](O)C[C@@H]1O`: the Ratio worked out at 3.21 in assay [3], 2.17 in assay [6], 2.22 in assay [8] and 2.08 in assay [10]. Also, the Serum Ca2+ was 3.8 mg/dL in assay [4], 4 mg/dL in assay [5], 4.1 mg/dL in assay [9] and 4.2 mg/dL in assay [11]. The “Kidney VDR” value in assay [7] was 249 fM (mg of protein)-1. In addition, the Plasma Ca2+ in assay [2] was 10.5 mg/dL.

The values above are taken from ChEMBL document CHEMBL1126966, “1,25,28-trihydroxyvitamin D2 up-regulates renal vitamin D receptor without causing hypercalcemia” (1993).
